{
  "source": "patent US12044651B2",
  "about": "“Sensor device and methods” (SCENTIAN BIO LIMITED, priority 2016, dated 2024)",
  "assay_type_in_all_cases": "binding",
  "key": {"[1]": {"target": "T1, OR35a (Drosophila melanogaster, UniProt Q9V3Q2)", "T1 sequence (Q9V3Q2 1-409)": "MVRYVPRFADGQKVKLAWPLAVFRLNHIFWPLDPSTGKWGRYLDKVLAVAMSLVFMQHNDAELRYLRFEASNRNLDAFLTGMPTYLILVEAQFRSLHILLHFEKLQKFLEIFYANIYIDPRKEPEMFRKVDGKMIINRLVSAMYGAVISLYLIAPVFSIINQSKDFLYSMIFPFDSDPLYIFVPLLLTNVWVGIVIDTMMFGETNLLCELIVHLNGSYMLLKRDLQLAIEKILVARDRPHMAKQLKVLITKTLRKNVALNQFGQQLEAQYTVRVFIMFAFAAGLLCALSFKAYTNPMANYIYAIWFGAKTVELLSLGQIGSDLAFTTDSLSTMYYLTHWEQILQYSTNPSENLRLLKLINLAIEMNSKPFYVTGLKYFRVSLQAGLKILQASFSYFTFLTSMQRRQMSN", "experiment": "EIS sensor, Or35a liposomes on gold electrode (Example 1)", "conditions": "Or35a liposomes, EIS", "experimental": "(§1) Liposomes were prepared using a phospholipid solution produced by evaporating solutions containing: phosphatidylethanolamine (PE), phosphatidylserine (PS), phosphatidylcholine (PC), and cholesterol (CH) at a molar ratio of 5:3:3:1 in a small glass tube under a stream of N2 gas, then desiccating under vacuum for 1 h. […] To promote the formation of liposomes, 10 freeze/thaw steps were performed by transferring the tube from liquid nitrogen to a 40° C. water bath. Liposomes were then sized by passing the lipid solution 11 times through a 100-nm polycarbonate membrane using an Avestin LiposoFAST extruder unit (Avestin, Germany). Glycerol was added at 10% of the final volume and aliquots at 10 mg/mL were snap frozen in liquid nitrogen and stored at -80° C. Prior to their use, liposomes were defrosted on ice and then destabilized by incubating with 0.2% CHAPS for 15 min at room temperature. Then 200 μg of purified odorant receptor^14 was added to 1 mg of liposomes and rotated at 10 rpm for 1 h at room temperature. […] The Bio-Beads were removed after each incubation period. The OR integrated liposomes were pelleted by centrifugation at 100,000 g for 1 h, and were resuspended in 500 μL of rehydration buffer. Integration of OrXs into liposomes was assessed by density gradient ultracentrifugation (DGU) using Accudenz (Accurate Chemical & Scientific Corporation, USA). […] The sample was then centrifuged at 100,000 g for 4 h at 4° C. Liposomes will float to the top of the gradient after Accudenz DGU due to their low density. 1.3 Electrode Cleaning Gold disk (2 mm) electrodes were cleaned with polishing with Alumina paste for 2 minutes, ultra-sonicated in pure ethanol and then Milli-Q water for 5 minutes each. […] Charge transfer resistance (Rct) of electrodes were calculated by fitting obtained data to a Randles' equivalent circuit [Rs+CPE/(Rct+W)] comprising of a solution resistance (Rs) in series with a constant phase element (CPE) and in parallel with charge transfer resistance (Rct) and Warburg diffusion element. […]"}, "[2]": {"target": "T2, Or22a (Drosophila melanogaster, UniProt P81909)", "T2 sequence (P81909 1-397)": "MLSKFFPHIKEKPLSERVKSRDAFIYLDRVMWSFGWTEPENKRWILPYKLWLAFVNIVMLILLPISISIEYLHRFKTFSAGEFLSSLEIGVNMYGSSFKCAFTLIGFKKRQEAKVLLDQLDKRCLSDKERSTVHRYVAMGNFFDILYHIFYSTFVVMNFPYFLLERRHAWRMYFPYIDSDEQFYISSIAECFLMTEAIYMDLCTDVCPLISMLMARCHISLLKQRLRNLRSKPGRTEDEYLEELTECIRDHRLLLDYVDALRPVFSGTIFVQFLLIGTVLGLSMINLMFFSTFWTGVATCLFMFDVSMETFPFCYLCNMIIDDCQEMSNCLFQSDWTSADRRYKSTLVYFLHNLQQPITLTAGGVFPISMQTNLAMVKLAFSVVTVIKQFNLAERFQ", "experiment": "EIS sensor, Or22a liposomes on gold electrode (Example 1)", "conditions": "Or22a liposomes, EIS", "experimental": "as §1"}, "[3]": {"target": "T3, OR71a (Drosophila melanogaster, UniProt Q9VUK5)", "T3 sequence (Q9VUK5 1-378)": "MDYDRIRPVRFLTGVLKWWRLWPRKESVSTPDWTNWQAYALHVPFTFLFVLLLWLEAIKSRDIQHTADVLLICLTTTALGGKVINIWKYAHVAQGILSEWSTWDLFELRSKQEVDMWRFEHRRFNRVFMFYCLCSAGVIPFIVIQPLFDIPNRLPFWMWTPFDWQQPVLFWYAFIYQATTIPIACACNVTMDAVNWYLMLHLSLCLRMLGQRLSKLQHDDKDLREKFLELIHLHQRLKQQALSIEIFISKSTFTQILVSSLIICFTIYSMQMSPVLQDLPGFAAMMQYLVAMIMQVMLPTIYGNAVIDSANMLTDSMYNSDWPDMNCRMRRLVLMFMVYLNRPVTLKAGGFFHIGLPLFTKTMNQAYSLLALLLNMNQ", "experiment": "EIS sensor, Or71a liposomes on gold electrode, optimized conditions (Example 5)"}},
  "data": [
    {"smiles": "CCC/C=C/C=O", "note": "[E2-hexenal]", "values": [
      {"measurement": "EC50", "setting": "[1]", "result": "~10", "unit": "nM"},
      {"measurement": "Sensitivity limit (lowest detectable concentration)", "setting": "[1]; signal/noise >3", "result": 36, "unit": "pM"}
    ]},
    {"smiles": "CCCCCC(=O)OC", "note": "[methyl hexanoate]", "values": [
      {"measurement": "EC50", "setting": "[2]", "result": "~10", "unit": "nM"},
      {"measurement": "Sensitivity limit (lowest detectable concentration)", "setting": "[2]; signal/noise >3", "result": 280, "unit": "pM"}
    ]},
    {"smiles": "COC(=O)c1ccccc1O", "note": "[methyl salicylate]", "values": [
      {"measurement": "EIS response to control ligand", "setting": "[3]", "result": "do not respond"}
    ]}
  ]
}
